Tested on: serine carboxypeptidase
Experiment: Effect of PMSF on the in vitro metabolism of antagonist D in 2% mouse liver homogenate
Assay type: biochemical
Conditions: antagonist D 100 µg in 1.0 ml 2% w/v mouse liver homogenate in PBS, 37°C; PMSF 0-2.5 mM preincubated 15 min at 23°C; HPLC; mean of two to four experiments
Description: British Journal of Cancer (1996) 73, 715-720 ? 1996 Stockton Press All rights reserved 0007-0920/96 $12.00 % Metabolism of the broad-spectrum neuropeptide growth factor antagonist: ID-Arg1, D-Phe5, D-Trp7'9, Leull"-substance P DA Jones', J Cummings', SP Langdon', AJ Maclellan', T Higgins2, E Rozengurt2 and JF Smyth' 'Imperial Cancer Research Fund, Medical Oncology Unit, Western General Hospital, Edinburgh EH4 2XU; 2Imperial Cancer Research Fund, PO Box 123, Lincoln's Inn Fields, London WC2A 3PX, UK. Summary Broad-spectrum neuropeptide growth factor antagonists, such as [D-Arg', D-Phe5, D-Trp7'9, Leu']substance P (antagonist D) and [Arg6, D-Trp7'9, NmePhe8]substance p(6- 11) (antagonist G), are currently being investigated as possible anti-tumour agents. These compounds are hoped to be effective against neuropeptide-driven cancers such as small-cell lung cancer. […] The in vitro metabolism of antagonist D has been characterised and the structures of two major metabolites have been elucidated by amino acid analysis and mass spectrometry. […] HPLC The HPLC system used consisted of two 510 HPLC pumps, a 712 WISP autosampler, a TCM column heater (all Waters, Northwich, UK) and a model 1046A fluorescence detector (Hewlett Packard, Walborn, Germany). […]

O=S(=O)(F)Cc1ccccc1 [PMSF, phenylmethylsulfonylfluoride]
PMSF concentration sufficient to cause almost complete arrest of the metabolism of antagonist D: 1.0 mM
